Reference: PubChem BioAssay (NCI)
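A five-concentration, 48-hour dose response in 96-well plates underlies each endpoint, interpolated linearly between surrounding concentrations. At the GI50, growth is halved. TGI denotes the concentration required for complete inhibition of growth.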

How the values were obtained:
Experiment in all cases: NCI anticancer screen, dose series, 48 h
CAKI-1 renal = test system: CAKI-1 renal
HCT-116 colon = test system: HCT-116 colon
IGROV1 ovarian = test system: IGROV1 ovarian
OVCAR-3 ovarian = test system: OVCAR-3 ovarian
OVCAR-4 ovarian = test system: OVCAR-4 ovarian
RXF 393 renal = test system: RXF 393 renal
SF-539 CNS = test system: SF-539 CNS
SNB-19 CNS = test system: SNB-19 CNS
SR leukemia = test system: SR leukemia
TK-10 renal = test system: TK-10 renal

Compound	TGI (CAKI-1 renal)	GI50 (HCT-116 colon)	TGI (HCT-116 colon)	TGI (IGROV1 ovarian)	TGI (OVCAR-3 ovarian)	TGI (OVCAR-4 ovarian)	TGI (RXF 393 renal)	GI50 (SF-539 CNS)	TGI (SF-539 CNS)	TGI (SNB-19 CNS)	TGI (SR leukemia)	TGI (TK-10 renal)	GI50 (CAKI-1 renal)	GI50 (IGROV1 ovarian)	GI50 (OVCAR-3 ovarian)	GI50 (OVCAR-4 ovarian)	GI50 (RXF 393 renal)	GI50 (SNB-19 CNS)	GI50 (SR leukemia)	GI50 (TK-10 renal)
O=C(N/N=C/c1cc(Cl)cc(Cl)c1[O-])c1ccccc1O.O=C(N/N=C/c1cc(Cl)cc(Cl)c1[O-])c1ccccc1O.[Ni+2]	1.41 µM	0.439 µM	1.5 µM	1.74 µM	0.835 µM	1.21 µM	2.1 µM	0.297 µM	1.16 µM	8.85 µM	1.46 µM	7.81 µM								
O=C(NC1CCN(Cc2ccccc2)CC1)c1cc2nc(-c3ccc(Cl)s3)cc(C(F)(F)F)n2n1	> 100 µM	4.84 µM	> 100 µM	> 100 µM	> 100 µM	49.3 µM	> 100 µM	> 100 µM	> 100 µM	> 100 µM	4.97 µM	> 100 µM	> 100 µM	> 100 µM	42.4 µM	12.7 µM	3.23 µM	> 100 µM	2.13 µM	12.5 µM
N#C[S-].[Nd+3].c1ccc(-c2ccccn2)nc1.c1ccc(-c2ccccn2)nc1.c1ccc(-c2ccccn2)nc1	> 100 µM	8.4 µM	> 100 µM	42.6 µM	> 100 µM	> 100 µM	24.8 µM	3.78 µM	> 100 µM	> 100 µM	> 100 µM	> 100 µM	5.9 µM	11.6 µM	37.6 µM	49.8 µM	3.89 µM	10.7 µM	6.9 µM	5.05 µM
